Test results taken from patent publication US7361659B2, “Pyrrazolo-pyrimidine derivatives” (Hoffmann-La Roche Inc., priority 2005, dated 2008).

Test system: not given
Assay: not given
Conditions: not given

SMILES | melting point [°C]
NS(=O)(=O)c1cc(NC(=O)c2cnn3c(C(F)(F)F)cc(-c4ccc(C(F)(F)F)cc4)nc23)c(Cl)s1 [Example 2, 7-Trifluoromethyl-5-(4-trifluoromethyl-phenyl)-pyrazolo[1,5-a]pyrimidine-3-carboxylic acid (2-chloro-5-sulfamoyl-thiophen-3-yl)-amide] | 275
CC(CO)(CO)NS(=O)(=O)c1cc(NC(=O)c2cnn3c(C(F)F)cc(-c4ccc(C(F)(F)F)cc4)nc23)c(Cl)s1 [Example 37, 7-Difluoromethyl-5-(4-trifluoromethyl-phenyl)-pyrazolo[1,5-a]pyrimidine-3-carboxylic acid [2-chloro-5-(2-hydroxy-1-hydroxymethyl-1-methyl-ethylsulfamoyl)-thiophen-3-yl]-amide] | 237
Cc1nc(NC(=O)c2cnn3c(C(F)(F)F)cc(-c4ccc(C(F)(F)F)c(OCC(F)(F)F)c4)nc23)sc1S(=O)(=O)NC(C)(C)CO [Example 32, 5-[3-(2,2,2-Trifluoro-ethoxy)-4-trifluoromethyl-phenyl]-7-trifluoromethyl-pyrazolo[1,5-a]pyrimidine-3-carboxylic acid [5-(2-hydroxy-1,1-dimethyl-ethylsulfamoyl)-4-methyl-thiazol-2-yl]-amide] | 275
Cc1sc(S(N)(=O)=O)cc1NC(=O)c1cnn2c(C(F)(F)F)cc(-c3ccc(C(F)(F)F)cc3)nc12 [Example 47, 7-Trifluoromethyl-5-(4-trifluoromethyl-phenyl)-pyrazolo[1,5-a]pyrimidine-3-carboxylic acid (2-methyl-5-sulfamoyl-thiophen-3-yl)-amide] | 297
Cc1nc(NC(=O)c2cnn3c(C(F)F)cc(-c4ccc(C(F)(F)F)cc4)nc23)sc1S(=O)(=O)NCCO [Example 45, 7-Difluoromethyl-5-(4-trifluoromethyl-phenyl)-pyrazolo[1,5-a]pyrimidine-3-carboxylic acid [5-(2-hydroxy-ethylsulfamoyl)-4-methyl-thiazol-2-yl]-amide] | 134
CC(C)(CO)NS(=O)(=O)c1cnc(NC(=O)c2cnn3c(C(F)F)cc(-c4ccc(C(F)(F)F)cc4)nc23)s1 [Example 60, 7-Difluoromethyl-5-(4-trifluoromethyl-phenyl)-pyrazolo[1,5-a]pyrimidine-3-carboxylic acid [5-(2-hydroxy-1,1-dimethyl-ethylsulfamoyl)-thiazol-2-yl]-amide] | 280
CC(C)(CO)NS(=O)(=O)c1cnc(NC(=O)c2cnn3c(C(F)(F)F)cc(-c4ccc(C(F)(F)F)cc4)nc23)s1 [Example 59, 7-Trifluoromethyl-5-(4-trifluoromethyl-phenyl)-pyrazolo[1,5-a]pyrimidine-3-carboxylic acid [5-(2-hydroxy-1,1-dimethyl-ethylsulfamoyl)-thiazol-2-yl]-amide] | 292
O=C(Nc1cc(S(=O)(=O)N2CCC(O)C2)sc1Cl)c1cnn2c(C(F)(F)F)cc(-c3ccc(C(F)(F)F)cc3)nc12 (racemic) [Example 67, 7-Trifluoromethyl-5-(4-trifluoromethyl-phenyl)-pyrazolo[1,5-a]pyrimidine-3-carboxylic acid [(RS)-2-chloro-5-(3-hydroxy-pyrrolidine-1-sulfonyl)-thiophen-3-yl]-amide] | 270
Cc1nc(NC(=O)c2cnn3c(C(F)(F)F)cc(-c4ccc(C(F)(F)F)c(Cl)c4)nc23)sc1S(=O)(=O)NC(C)(C)CO [Example 30, 5-(3-Chloro-4-trifluoromethyl-phenyl)-7-trifluoromethyl-pyrazolo[1,5-a]pyrimidine-3-carboxylic acid [5-(2-hydroxy-1,1-dimethyl-ethylsulfamoyl)-4-methyl-thiazol-2-yl]-amide] | 274
NS(=O)(=O)c1nnc(NC(=O)c2cnn3c(C(F)(F)F)cc(-c4ccc(C(F)(F)F)cc4)nc23)s1 [Example 4, 7-Trifluoromethyl-5-(4-trifluoromethyl-phenyl)-pyrazolo[1,5-a]pyrimidine-3-carboxylic acid (5-sulfamoyl-[1,3,4]thiadiazol-2-yl)-amide] | 280
CC(C)(CO)NS(=O)(=O)c1cc(NC(=O)c2cnn3c(C(F)(F)F)cc(-c4ccc(C(F)(F)F)c(OCC(F)(F)F)c4)nc23)c(Cl)s1 [Example 17, 5-[3-(2,2,2-Trifluoro-ethoxy)-4-trifluoromethyl-phenyl]-7-trifluoromethyl-pyrazolo[1,5-a]pyrimidine-3-carboxylic acid [2-chloro-5-(2-hydroxy-1,1-dimethyl-ethylsulfamoyl)-thiophen-3-yl]-amide] | 264
CN1CCN(S(=O)(=O)c2cc(NC(=O)c3cnn4c(C(F)(F)F)cc(-c5ccc(C(F)(F)F)cc5)nc34)c(Cl)s2)CC1 [Example 74, 7-Trifluoromethyl-5-(4-trifluoromethyl-phenyl)-pyrazolo[1,5-a]pyrimidine-3-carboxylic acid [2-chloro-5-(4-methyl-piperazine-1-sulfonyl)-thiophen-3-yl]-amide] | 301
Cc1nc(NC(=O)c2cnn3c(C(F)F)cc(-c4ccc(C(F)(F)F)cc4)nc23)sc1S(=O)(=O)N(C)CCO [Example 70, 7-Difluoromethyl-5-(4-trifluoromethyl-phenyl)-pyrazolo[1,5-a]pyrimidine-3-carboxylic acid {5-[(2-hydroxy-ethyl)-methyl-sulfamoyl]-4-methyl-thiazol-2-yl}-amide] | 216
O=C(Nc1cc(S(=O)(=O)NC(CO)CO)sc1Cl)c1cnn2c(C(F)(F)F)cc(-c3ccc(C(F)(F)F)cc3)nc12 [Example 29, 7-Trifluoromethyl-5-(4-trifluoromethyl-phenyl)-pyrazolo[1,5-a]pyrimidine-3-carboxylic acid [2-chloro-5-(2-hydroxy-1-hydroxymethyl-ethylsulfamoyl)-thiophen-3-yl]-amide] | 225
O=C(Nc1cc(S(=O)(=O)NCCO)sc1Cl)c1cnn2c(C(F)(F)F)cc(-c3ccc(C(F)(F)F)cc3)nc12 [Example 36, 7-Trifluoromethyl-5-(4-trifluoromethyl-phenyl)-pyrazolo[1,5-a]pyrimidine-3-carboxylic acid [2-chloro-5-(2-hydroxy-ethylsulfamoyl)-thiophen-3-yl]-amide] | 191
Cc1nc(NC(=O)c2cnn3c(C(F)(F)F)cc(-c4ccc(C(F)(F)F)cc4)nc23)sc1S(=O)(=O)N(CCO)CCO [Example 41, 7-Trifluoromethyl-5-(4-trifluoromethyl-phenyl)-pyrazolo[1,5-a]pyrimidine-3-carboxylic acid {5-[bis-(2-hydroxy-ethyl)-sulfamoyl]-4-methyl-thiazol-2-yl}-amide] | 214
CCOc1cc(-c2cc(C(F)(F)F)n3ncc(C(=O)Nc4cc(S(N)(=O)=O)sc4Cl)c3n2)ccc1C(F)(F)F [Example 10, 5-(3-Ethoxy-4-trifluoromethyl-phenyl)-7-trifluoromethyl-pyrazolo[1,5-a]pyrimidine-3-carboxylic acid (2-chloro-5-sulfamoyl-thiophen-3-yl)-amide] | 281
NS(=O)(=O)c1cc(NC(=O)c2cnn3c(C(F)(F)F)cc(-c4ccc(Cl)cc4)nc23)c(Cl)s1 [Example 9, 5-(4-Chloro-phenyl)-7-trifluoromethyl-pyrazolo[1,5-a]pyrimidine-3-carboxylic acid (2-chloro-5-sulfamoyl-thiophen-3-yl)-amide] | 329
CN1CCN(S(=O)(=O)c2cc(NC(=O)c3cnn4c(C(F)F)cc(-c5ccc(C(F)(F)F)cc5)nc34)c(Cl)s2)CC1 [Example 73, 7-Difluoromethyl-5-(4-trifluoromethyl-phenyl)-pyrazolo[1,5-a]pyrimidine-3-carboxylic acid [2-chloro-5-(4-methyl-piperazine-1-sulfonyl)-thiophen-3-yl]-amide] | 293
Cc1cc(-c2cc(C(F)(F)F)n3ncc(C(=O)Nc4cc(S(N)(=O)=O)sc4Cl)c3n2)ccc1C(F)(F)F [Example 11, 5-(3-Methyl-4-trifluoromethyl-phenyl)-7-trifluoromethyl-pyrazolo[1,5-a]pyrimidine-3-carboxylic acid (2-chloro-5-sulfamoyl-thiophen-3-yl)-amide] | 283

Molecular target: T1, rat mGlu2 receptor (Rattus norvegicus, UniProt P31421)
T1 construct: expressed in transfected cells; membranes prepared
Assay: [3H]-LY354740 binding on mGlu2 transfected CHO cell membranes
Conditions: 10 nM [3H]-LY354740, membranes of CHO cells transfected with rat mGlu2, room temperature, 1 hour
Source text: [^3H]-LY354740 Binding on mGlu2 Transfected CHO Cell Membranes. Transfection and Cell Culture
cDNA encoding the rat mGlu2 receptor protein in pBluescript II was subcloned into the eukaryotic expression vector pcDNA I-amp from Invitrogen Ltd (Paisley, UK). This vector construct (pcD1mGR2) was co-transfected with a psvNeo plasmid encoding the gene for neomycin resistance, into CHO cells by a modified calcium phosphate method described by Chen & Okayama (1988). The cells were maintained in Dulbecco's Modified Eagle medium with reduced L-glutamine (2 mM final concentration) and 10% dialysed foetal calf serum from Gibco-Invitrogen (Carlsbad, Calif., USA). Selection was made in the presence of G-418 (1000 ug/ml final) and […]. Clones were identified by reverse transcription of 5 μg total RNA, followed by PCR mGlu2 receptor specific primers 5′-[…]-3′ and 5′-[…]-3′in 60 mM Tris HCl (pH 10), 15 mM (NH4)2SO4, 2 mM MgCl2, 25 units/ml Taq Polymerase with 30 cycles annealing at 60° C. for 1 min., extention at 72° C. for 30 s, and 1 min. 95° C. denaturation.
Cells, cultured as above, were harvested and washed three times with cold PBS and frozen at −80° C. The pellet was resuspended in cold 20 mM HEPES-NaOH buffer containing 10 mM EDTA (pH 7.4), and homogenised with a polytron (Kinematica, AG, Littau, Switzerland) for 10 s at 10 000 rpm. After centrifugation for 30 min. at 4° C., the pellet was washed once with the same buffer, and once with cold 20 mM HEPES-NaOH buffer containing 0.1 mM EDTA, (pH 7.4). Protein content was measured using the micro BCA method from Pierce-Perbio (Rockford, Ill., USA) using bovine serum albumin as standard.
After thawing, the membranes were resuspended in cold 50 mM Tris-HCl buffer containing 2 mM MgCl2 (pH 7) (binding buffer). The final concentration of the membranes in the assays was 25 μg protein/ml. Inhibition experiments were performed with membranes incubated with 10 nM [^3H]-LY354740 at room temperature, for 1 hour, in presence of various concentrations of the compound to be tested. Following the incubations, membranes were filtered onto Whatmann GF/B glass fiber filters and washed 5 times with cold binding buffer. Non specific binding was measured in the presence of 10 μM DCG IV. After transfer of the filters into plastic vials containing 10 ml of Ultima-gold scintillation fluid from Perkin-Elmer(Boston, Mass., USA), the radioactivity was measured by liquid scintillation in a Tri-Carb 2500 TR counter (Packard, Zürich, Switzerland).
The inhibition curves were fitted with a four parameter logistic equation giving IC50 values, and Hill coefficients.

T1 sequence (P31421 19-872): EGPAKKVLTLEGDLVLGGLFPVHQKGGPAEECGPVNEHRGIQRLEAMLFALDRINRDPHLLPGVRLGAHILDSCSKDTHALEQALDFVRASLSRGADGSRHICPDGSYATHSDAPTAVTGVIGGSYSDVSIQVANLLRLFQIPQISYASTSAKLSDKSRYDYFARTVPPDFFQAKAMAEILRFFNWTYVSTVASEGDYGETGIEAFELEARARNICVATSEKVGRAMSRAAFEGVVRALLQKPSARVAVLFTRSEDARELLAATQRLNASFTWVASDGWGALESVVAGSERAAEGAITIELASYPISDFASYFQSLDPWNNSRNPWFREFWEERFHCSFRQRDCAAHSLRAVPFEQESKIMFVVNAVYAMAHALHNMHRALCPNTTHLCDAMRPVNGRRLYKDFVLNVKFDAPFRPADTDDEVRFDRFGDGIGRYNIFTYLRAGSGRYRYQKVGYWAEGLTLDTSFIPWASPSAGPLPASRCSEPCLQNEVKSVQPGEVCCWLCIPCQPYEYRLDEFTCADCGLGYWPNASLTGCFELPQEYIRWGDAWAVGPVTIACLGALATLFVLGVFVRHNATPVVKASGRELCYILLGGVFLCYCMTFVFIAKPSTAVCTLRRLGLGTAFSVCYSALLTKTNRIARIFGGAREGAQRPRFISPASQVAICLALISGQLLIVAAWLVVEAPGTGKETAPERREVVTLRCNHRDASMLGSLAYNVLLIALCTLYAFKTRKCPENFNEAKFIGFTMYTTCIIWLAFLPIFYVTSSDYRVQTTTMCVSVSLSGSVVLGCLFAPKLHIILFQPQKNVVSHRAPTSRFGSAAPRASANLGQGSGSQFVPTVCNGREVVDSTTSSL

SMILES | Ki [nM]
NS(=O)(=O)c1cc(NC(=O)c2cnn3c(C(F)(F)F)cc(-c4ccc(C(F)(F)F)cc4)nc23)c(Cl)s1 [Example 2, 7-Trifluoromethyl-5-(4-trifluoromethyl-phenyl)-pyrazolo[1,5-a]pyrimidine-3-carboxylic acid (2-chloro-5-sulfamoyl-thiophen-3-yl)-amide] | 6.9
